{"source": "patent US20130165526A1", "about": "“TOPICAL TREATMENT WITH DAPSONE IN G6PD-DEFICIENT PATIENTS” (ALLERGAN, INC., priority 2007, published 2013)", "origin": "cited, not measured here", "tested_on": "P. acnes", "settings": "Godowski et al., 2000"}
{"smiles": "Nc1ccc(S(=O)(=O)c2ccc(N)cc2)cc1", "note": "[Dapsone, bis(4-aminophenyl)sulfone]", "values": [{"measurement": "Minimum inhibitory concentration", "result": "about 1 microgram per milliliter"}]}
